Tested on: N-kinase
Experiment: in-gel kinase method (histone HF-1 substrate, [32P]-ATP)
Assay type: biochemical
Conditions: in-gel kinase assay, [32P]-ATP plus Mn2+, with or without 6-TG present; bovine brain fractions
Experimental: During the purification process, kinase activity was monitored using an in-gel kinase method. In this method, a histone HF-1 substrate protein is polymerized into a 10% polyacrylamide gel before the samples to be analyzed are electrophoresed in the gel. Following completion of the electrophoresis, proteins are partially renatured with guanidium isothiocyanate and incubated in the presence [^32P]-ATP plus Mn^2+, with or without 6-TG present. (Activation by Mn^2+, but not by Mg^2+ or Ca^2+, is a distinctive property of N-kinase). The purification of the kinase was monitored by looking for a 6-TG-inhibitable radioactive band corresponding to the site where the kinase phosphorylates the HF-1 substrate in the gel.

Nc1nc2nc[nH]c2c(=S)[nH]1 [6-TG, 6-thioguanine]
inhibition of N-kinase HF-1-phosphorylating activity: inhibitable

Reference: patent US7172871B1, “Methods and compositions for modulating axonal outgrowth of central nervous system neurons” (Children's Medical Center Corporation, priority 2000, dated 2007)
